The source of these data is publication PMC11337205, “Unraveling Interspecies Differences in the Phase I Hepatic Metabolism of Alternariol and Alternariol Monomethyl Ether: Closing Data Gaps for a Comprehensive Risk Assessment” (Chemical Research in Toxicology, 2024).

Read-outs that look alike come from different tables or passages of the source.

Data set [1] can be described thus: Phase I metabolism kinetics (parent toxin loss) in NADPH-fortified porcine liver microsomes, LC-MS/MS. The note with it: for microsomal CLint: Large White, pH 7.4, porcine LMs, read-out: CLint (intrinsic clearance). Format: in vitro ADME, pig. How it is done: Pooled human LMs and pooled Sprague–Dawley rat hepatic microsomes, both originating from male donors, were purchased from Sigma-Aldrich (St. Louis, MO, USA) and Gibco, Thermo Fisher Scientific (Waltham, MA, USA), respectively. Porcine LMs were prepared according to an in-house-developed protocol based on the publication of Knights et al.[32] The liver of an approximately four-month-old female “Large White” (or “German Edelschwein”) pig was obtained from a local slaughterhouse. After slaughtering, the liver was placed on ice for about an hour, kept in ice-cold 50 mM tris(hydroxymethyl)aminomethane hydrochloride (Tris–HCl) (pH 7.4) for an additional hour while being transported, and processed immediately.
(§1) The kinetics of the phase I metabolism of AOH and AME was investigated by incubating human, rat (both 1 mg protein/mL), and porcine LMs (2 mg protein/mL) with 1, 10, 20, 50, and 100 μM AOH or 1, 10, 20, and 50 μM AME based on the protocol by Al-Subeihi et al.[34] The incubation solution contained a final concentration of 3 mM NADPH and 1 mM ascorbic acid in 200 mM Tris–HCl (pH 7.4). After preincubation (37 °C, 1 min, mixing at 250–300 rpm), the toxin stock was added in a 1:100 dilution, resulting in a total DMSO content of 1% and the desired toxin concentration. DMSO was selected for this assay because it is the least inhibitory of the solvents studied by Busby et al. on CYP1A1,[35] the primary enzyme involved in the hydroxylation of AOH and AME.[26] The well-established solubility of the test compounds in DMSO and DMSO-containing aqueous buffers facilitated laboratory work and ensured consistency with existing literature, thereby improving the comparability of results across studies, including those of Pfeiffer and colleagues.[25] In a preliminary investigation, incubation times of 5 and 10 min were chosen because they fall within the linear range of the transformation rate–time relationship, thereby ensuring initial rate conditions (Figure S1). When the selected incubation time (0–10 min) passed, one part of the sample was pipetted into two parts of ice-cold extraction solvent (acetonitrile–methanol, 1:1, v/v) for reaction termination. Subsequently, the samples were placed into the freezer (−20 °C) for at least an hour, centrifuged (15 min, 18,000g, 4 °C), and further diluted in methanol–water (3:7, v/v) prior to LC–MS measurements. In the solvent control, the toxin was substituted with DMSO in the incubation solution. Control incubations were performed without the cofactor NADPH or with heat-inactivated microsomes (98 °C, 10 min, mixing at 300 rpm).
The quantification of selected analytes using external calibration (MS parameters listed in Supporting Information Table S1) was conducted on a high-performance liquid chromatographic system (Dionex UltiMate 3000 UHPLC, Dionex Softron GmbH, Germering, Germany) coupled to a triple quadrupole mass spectrometer (TSQ Vantage, Thermo Fisher Scientific, Waltham, MA, USA), equipped with a heated electrospray ionization (ESI) interface. The applied analytical method is based on Puntscher et al.[28],[36] with slight modifications, which are specified below.
In brief, the Ascentis Express C18 column (10 cm × 2.1 mm, 2.7 μm, Supelco, Munich, DE), equipped with the Phenomenex SecurityGuard (C18 Cartridges, 4 × 2.0 mm ID, Phenomenex Ltd. Deutschland, Aschaffenburg, Germany), served as the stationary phase. Eluent A was aqueous ammonium acetate (5 mM, pH adjusted to 8.6 with a 25% ammonia solution), and eluent B was methanol. During the first minute, the column was kept at 30% eluent B. Subsequently, the eluent B content was linearly raised to 100% within 6 min. Thereafter, the column was washed with 100% eluent B for 1.5 min. Lastly, the column was re-equilibrated at the initial conditions, reaching an overall run time of 10 min. The autosampler compartment was kept at 10 °C, while the column oven temperature was maintained at 30 °C. […]
A general note: Liver microsomes are a subcellular fraction often used to study metabolism.

A short description of data set [2]: Pattern of oxidative metabolites in porcine LMs by HR-MS. The note with it: porcine LMs incubated with AME. The data set is classed as in vitro ADME, pig. How it is done:
as §1
Pooled high-resolution MS (HR-MS) samples were analyzed on a Vanquish UHPLC system (Thermo Fisher Scientific, Waltham, MA, USA) connected to a dual-pressure linear trap-quadrupole Orbitrap mass analyzer (Velos ETD, Thermo Fisher Scientific, Waltham, MA, USA). The heated ESI interface (source heater temperature: 400 °C) was operated in both positive and negative modes. The mobile and stationary phases were the same as those for the targeted analysis. The column compartment temperature was kept at 40 °C. A multistep gradient was applied at a flow rate of 0.4 mL/min and started with rinsing the column for 1 min at 10% eluent B. Then, the organic content was linearly raised to 100% until the 11th minute. Subsequently, the column was purged with 100% eluent B for two additional minutes. Finally, the initial eluent composition was reset between minutes 13 and 13.5, followed by a 2 min re-equilibration under these conditions, resulting in a total run time of 15.5 min. Data acquisition and evaluation were performed with the software Skyline (v. 21.1.0.146, MacCoss Lab, Department of Genome Sciences, University of Washington, Seattle, WA, USA), XCalibur (v. 2.2SP1.48), and Chromeleon (v. 7.2.6.; both Thermo Fisher Scientific, Waltham, MA, USA).
As no analytical standards are currently available for the hydroxy (OH) metabolites of AOH and AME, an Alternaria reference mixture containing 4-OH-AOH and 4-OH-AME was used to enable associating peaks with their respective phase I metabolites.

Usually Km stands for the substrate concentration at which the rate is half of its maximum. As for `Cc1cc(O)cc2oc(=O)c3c(O)cc(O)cc3c12` [AOH, alternariol], the Km in data set [1] (female, Large White (German Edelschwein), pig, liver microsomes, pH 7.4, porcine LMs 2 mg protein/mL, NADPH, within 10 min, Michaelis–Menten model, read-out: Km (Michaelis constant)) amounted to 672 µM. The microsomal CLint came to 8.52 µL/min/mg in data set [1] (female, pig, liver microsomes, Michaelis–Menten model, ratio Vmax/Km) and 6.56 µL/min/mg in data set [1] (female, pig, liver microsomes, linear regression, lower concentration range). Besides, the Concentration decrease in data set [1] (porcine LMs, 1 µM toxin, 5 min) turned out to be 20%; in data set [1] (porcine LMs, 1 µM toxin, 10 min), 47%; in data set [1] (porcine LMs, 10 µM toxin, 5 min), 6%; in data set [1] (porcine LMs, 10 µM toxin, 10 min), 16%; in data set [1] (porcine LMs, 20 µM toxin, 5 min), 2%; in data set [1] (porcine LMs, 20 µM toxin, 10 min), 15%. The Concentration decrease in data set [1] (porcine LMs, 50 µM toxin, 5 min) came to 11%; in data set [1] (porcine LMs, 50 µM toxin, 10 min), 14%; in data set [1] (porcine LMs, 100 µM toxin, 5 min), 12%; in data set [1] (porcine LMs, 100 µM toxin, 10 min), 14%. Moreover, the “Vmax (maximum transformation rate)” value in data set [1] (porcine LMs, within 10 min, Michaelis–Menten model) came out at 5730 pmol/mg/min. Moreover, the “relative abundance among phase I metabolites (in words)” value in data set [2] is recorded as “one of the main metabolites”.
